Patent publication US20090215884A1, “METHOD FOR WOUND HEALING” (priority 2005, published 2009)

Tested on: PBMC
Experiment: Cytokine production of stimulated PBMC (Bead Suspension Assay)
Type: cell-based, human
Conditions: 24 h
Method: PEP005 was provided as a dry powder. A stock solution of 23.55 mM was prepared in DMSO and aliquots were stored at −20° C. An aliquot of the stock solution was thawed on the day of use and stored at room temperature prior to and during dosing. Intermediate dilution steps were carried out using DMEM cell culture medium.
For the isolation of PBMC freshly drawn human blood treated with Li-Heparin as an anti-coagulant was used. Cells were diluted with three volumes of CliniMACS PBS/EDTA Buffer (Miltenyi, Bergisch Gladbach), carefully layered over FicollPaque (Amersham Biosciences, Freiburg) in a conical tube and centrifuged at 400×g for 40 minutes at 20° C. in a swinging-bucket rotor without brake. The upper layer was aspirated, leaving the mononuclear cell layer undisturbed at the interphase. The interphase cells (lymphocytes, monocytes and thrombocytes) were carefully transferred into a new conical tube. The conical tube was filled with CliniMACS PBS/EDTA Buffer and centrifuged at 300×g for 10 minutes at 20° C. The supernatant was completely removed. For removal of platelets the cell pellet was resuspended in 50 ml of Buffer and centrifuged at 200×g for 10 minutes at 20° C. The supernatant was completely removed and the last washing step was repeated. Cells were resuspended in DMEMMedium (Invitrogen, Karlsruhe) and counted in a Neubauer-hemocytometer.
For the stimulation of PBMC 250.000 cells per well were seeded in a 96-well plate. PBMC of three different healthy donors were stimulated with PEP005 in three different concentrations (1, 10 and 100 nM) or LPS 1 μg/ml (Linaris, Wertheim-Bettingen), PMA 10 ng/ml (Sigma, Deisenhofen) and Ionomycin 1 μg/ml (Sigma, Deisenhofen), respectively. Cells were incubated at 37° C. and 5% CO^2 in a humidified atmosphere for 24 h.
In a typical Bead Suspension Assay a cytokine is captured from a supernatant with bead bound antibodies. The cytokine is quantified with a secondary antibody to complete a sandwich immunoassay. Cytokine concentrations are calculated with the help of a standard curve for each cytokine.
The cytokines IL-1β, IL-2, IL-6, IL-8 and TNF-α were quantitatively measured in the supernatant of the PBMC with a BioRad BioPlex System according to the manufacturer's intructions. All samples were measured in duplicates. All units of detected proteins are pg/ml.
To investigate the immunostimulating effects of PEP005, PBMCs from three different healthy donors were exposed for 24 h to PEP005 at concentrations of 1, 10 and 100 nM. The secretion of IL-1β, IL-2, IL-6, IL-8 and TNF-α into the supernatant was quantitatively measured by flow cytometry with the Bead Suspension Assays. The results are depicted in Tables 1.4-1.8.

[1] = PBMC donor three, PEP005 100 nM
[2] = PBMCs from the three donors, 1 nM PEP005

For `C/C=C(/C)C(=O)O[C@H]1C(C)=C[C@]23C(=O)[C@@H](C=C(CO)[C@@H](O)[C@]12O)[C@H]1[C@@H](C[C@H]3C)C1(C)C` [PEP005, ingenol-3-angelate], the “elevated IL-6 levels in PBMC supernatant (parenthetical, condition not stated)” value was roughly 9 fold, the IL-1β production (PBMC donor one, PEP005 1 nM) was 94.49 pg/mL and the IL-2 production (PBMC donor one, PEP005 1 nM) was 82.68 pg/mL. For the same compound, the IL-6 production (PBMC donor one, PEP005 1 nM) was 320.61 pg/mL, the IL-8 production (PBMC donor one, PEP005 1 nM) was 13652.6 pg/mL and the TNF-α production (PBMC donor one, PEP005 1 nM) was 148.42 pg/mL. For the same compound, the IL-1β production (PBMC donor one, PEP005 10 nM) was 61.62 pg/mL, the IL-2 production (PBMC donor one, PEP005 10 nM) was 60.3 pg/mL and the IL-6 production (PBMC donor one, PEP005 10 nM) was 216.09 pg/mL. It also gave an IL-8 production (PBMC donor one, PEP005 10 nM) of 9418.94 pg/mL, a TNF-α production (PBMC donor one, PEP005 10 nM) of 76.14 pg/mL and an IL-1β production (PBMC donor one, PEP005 100 nM) of 0 pg/mL. It also gave an IL-2 production (PBMC donor one, PEP005 100 nM) of 10.56 pg/mL, an IL-6 production (PBMC donor one, PEP005 100 nM) of 0 pg/mL and an IL-8 production (PBMC donor one, PEP005 100 nM) of 52.77 pg/mL. The TNF-α production (PBMC donor one, PEP005 100 nM) was 19.44 pg/mL, the IL-1β production (PBMC donor three, PEP005 1 nM) was 314.73 pg/mL and the IL-2 production (PBMC donor three, PEP005 1 nM) was 54.61 pg/mL. For the same compound, the IL-6 production (PBMC donor three, PEP005 1 nM) was 131.46 pg/mL, the IL-8 production (PBMC donor three, PEP005 1 nM) was 28029.68 pg/mL and the TNF-α production (PBMC donor three, PEP005 1 nM) was 130.99 pg/mL. For the same compound, the IL-1β production (PBMC donor three, PEP005 10 nM) was 173.33 pg/mL, the IL-2 production (PBMC donor three, PEP005 10 nM) was 31.53 pg/mL and the IL-6 production (PBMC donor three, PEP005 10 nM) was 61.66 pg/mL. For the same compound, the IL-8 production (PBMC donor three, PEP005 10 nM) was 11438.34 pg/mL, the TNF-α production (PBMC donor three, PEP005 10 nM) was 73.48 pg/mL and the IL-1β production [1] was 10.92 pg/mL. The IL-2 production [1] was 2 pg/mL, the IL-6 production [1] was 0 pg/mL and the IL-8 production [1] was 205.36 pg/mL. For the same compound, the TNF-α production [1] was 12.93 pg/mL, the IL-1β production (PBMC donor two, PEP005 1 nM) was 125.17 pg/mL and the IL-2 production (PBMC donor two, PEP005 1 nM) was 17.86 pg/mL. It also gave an IL-6 production (PBMC donor two, PEP005 1 nM) of 69.48 pg/mL, an IL-8 production (PBMC donor two, PEP005 1 nM) of 12148.42 pg/mL and a TNF-α production (PBMC donor two, PEP005 1 nM) of 90.72 pg/mL. It also gave an IL-1β production (PBMC donor two, PEP005 10 nM) of 98.04 pg/mL, an IL-2 production (PBMC donor two, PEP005 10 nM) of 19.47 pg/mL and an IL-6 production (PBMC donor two, PEP005 10 nM) of 73.97 pg/mL. It also gave an IL-8 production (PBMC donor two, PEP005 10 nM) of 18220.74 pg/mL, a TNF-α production (PBMC donor two, PEP005 10 nM) of 71.6 pg/mL and an IL-1β production (PBMC donor two, PEP005 100 nM) of 11.76 pg/mL. For the same compound, the IL-2 production (PBMC donor two, PEP005 100 nM) was 12.84 pg/mL, the IL-6 production (PBMC donor two, PEP005 100 nM) was 95.43 pg/mL and the IL-8 production (PBMC donor two, PEP005 100 nM) was 217.52 pg/mL. The TNF-α production (PBMC donor two, PEP005 100 nM) was 35.75 pg/mL, the “increase of IL-2 levels in the supernatant” value [2] was 20 to 80 fold and the “mean increase of IL-2 levels in the supernatant” value [2] was “approximately 50 fold”. For the same compound, the “increase of IL-6 levels in PBMC supernatants” value (PEP005 at 1 nM) was 4 to 6 fold, the “increase of IL-8 levels in the supernatant of PBMCs” value (PEP005 at 1 nM) was 3- to 5 fold and the “TNF-α levels in supernatants of PBMCs” value (all three donors, PEP005 at 1 nM) was “approximately 120 nM”.
